In PubChem BioAssay (NCI):
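Each compound was tested at five concentrations against cells in 96-well plates for 48 hours. GI50 = concentration required for 50% inhibition of growth. TGI denotes the concentration required for complete inhibition of growth.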

Key:
Assay in all cases: NCI-60 cell line screen, 48 h
786-0 renal = tested on: 786-0 renal
A498 renal = tested on: A498 renal
A549 NSCLC = tested on: A549 NSCLC
ACHN renal = tested on: ACHN renal
BT-549 breast = tested on: BT-549 breast
CAKI-1 renal = tested on: CAKI-1 renal
CCRF-CEM leukemia = tested on: CCRF-CEM leukemia
COLO 205 colon = tested on: COLO 205 colon
DU-145 prostate = tested on: DU-145 prostate
EKVX NSCLC = tested on: EKVX NSCLC
HCC-2998 colon = tested on: HCC-2998 colon
HCT-116 colon = tested on: HCT-116 colon
HCT-15 colon = tested on: HCT-15 colon
HL-60(TB) leukemia = tested on: HL-60(TB) leukemia
HOP-62 NSCLC = tested on: HOP-62 NSCLC
HOP-92 NSCLC = tested on: HOP-92 NSCLC
HS 578T breast = tested on: HS 578T breast
HT29 colon = tested on: HT29 colon
IGROV1 ovarian = tested on: IGROV1 ovarian
K-562 leukemia = tested on: K-562 leukemia
KM12 colon = tested on: KM12 colon
LOX IMVI melanoma = tested on: LOX IMVI melanoma
M14 melanoma = tested on: M14 melanoma
MALME-3M melanoma = tested on: MALME-3M melanoma
MCF7 breast = tested on: MCF7 breast
MDA-MB-231 breast = tested on: MDA-MB-231 breast
MDA-MB-435 = tested on: MDA-MB-435
MOLT-4 leukemia = tested on: MOLT-4 leukemia
NCI-H226 lung = tested on: NCI-H226 lung
NCI-H23 lung = tested on: NCI-H23 lung
NCI-H460 lung = tested on: NCI-H460 lung
NCI-H522 lung = tested on: NCI-H522 lung
NCI/ADR-RES ovarian = tested on: NCI/ADR-RES ovarian
OVCAR-3 ovarian = tested on: OVCAR-3 ovarian
OVCAR-4 ovarian = tested on: OVCAR-4 ovarian
OVCAR-5 ovarian = tested on: OVCAR-5 ovarian
OVCAR-8 ovarian = tested on: OVCAR-8 ovarian
PC-3 prostate = tested on: PC-3 prostate
RPMI-8226 leukemia = tested on: RPMI-8226 leukemia
RXF 393 renal = tested on: RXF 393 renal
SF-268 CNS = tested on: SF-268 CNS
SF-295 CNS = tested on: SF-295 CNS
SF-539 CNS = tested on: SF-539 CNS
SK-MEL-2 melanoma = tested on: SK-MEL-2 melanoma
SK-MEL-28 melanoma = tested on: SK-MEL-28 melanoma
SK-MEL-5 melanoma = tested on: SK-MEL-5 melanoma
SK-OV-3 ovarian = tested on: SK-OV-3 ovarian
SN12C renal = tested on: SN12C renal
SNB-19 CNS = tested on: SNB-19 CNS
SNB-75 CNS = tested on: SNB-75 CNS
SR leukemia = tested on: SR leukemia
SW-620 colon = tested on: SW-620 colon
T-47D breast = tested on: T-47D breast
TK-10 renal = tested on: TK-10 renal
U251 CNS = tested on: U251 CNS
UACC-257 melanoma = tested on: UACC-257 melanoma
UACC-62 melanoma = tested on: UACC-62 melanoma
UO-31 renal = tested on: UO-31 renal

CCC(=O)Nc1ccccc1C#C/C=C\C#Cc1ccccc1C(F)(F)F
GI50 (786-0 renal): 2.37 µM | TGI (786-0 renal): 23.2 µM | GI50 (A498 renal): 1.68 µM | TGI (A498 renal): 10.7 µM | GI50 (A549 NSCLC): 2.53 µM | TGI (A549 NSCLC): > 32.6 µM | GI50 (ACHN renal): 3.98 µM | TGI (ACHN renal): > 50 µM | GI50 (BT-549 breast): 2.21 µM | TGI (BT-549 breast): 32.5 µM | GI50 (CAKI-1 renal): 1.53 µM | TGI (CAKI-1 renal): > 30.4 µM | GI50 (CCRF-CEM leukemia): 2.4 µM | TGI (CCRF-CEM leukemia): > 20 µM | GI50 (COLO 205 colon): 4.59 µM | TGI (COLO 205 colon): > 25.9 µM | GI50 (DU-145 prostate): 2.28 µM | TGI (DU-145 prostate): 22.3 µM | GI50 (EKVX NSCLC): 1.06 µM | TGI (EKVX NSCLC): 25.2 µM | GI50 (HCC-2998 colon): 4.19 µM | TGI (HCC-2998 colon): 14.9 µM | GI50 (HCT-116 colon): 2.81 µM | TGI (HCT-116 colon): 25.8 µM | GI50 (HCT-15 colon): 3.9 µM | TGI (HCT-15 colon): > 50 µM | GI50 (HL-60(TB) leukemia): 1.18 µM | TGI (HL-60(TB) leukemia): > 10.4 µM | GI50 (HOP-62 NSCLC): 2.42 µM | TGI (HOP-62 NSCLC): > 50 µM | GI50 (HOP-92 NSCLC): 3.01 µM | TGI (HOP-92 NSCLC): > 36.1 µM | GI50 (HS 578T breast): 1.35 µM | TGI (HS 578T breast): 9.19 µM | GI50 (HT29 colon): 5.94 µM | TGI (HT29 colon): > 50 µM | GI50 (IGROV1 ovarian): 3.39 µM | TGI (IGROV1 ovarian): > 18.9 µM | GI50 (K-562 leukemia): 2.29 µM | TGI (K-562 leukemia): > 50 µM | GI50 (KM12 colon): 2.02 µM | TGI (KM12 colon): > 26.5 µM | GI50 (LOX IMVI melanoma): 5.14 µM | TGI (LOX IMVI melanoma): > 50 µM | GI50 (M14 melanoma): 2.09 µM | TGI (M14 melanoma): 23.2 µM | GI50 (MALME-3M melanoma): 7.54 µM | TGI (MALME-3M melanoma): > 50 µM | GI50 (MCF7 breast): 2.61 µM | TGI (MCF7 breast): > 36.1 µM | GI50 (MDA-MB-231 breast): 3.13 µM | TGI (MDA-MB-231 breast): > 29.3 µM | GI50 (MDA-MB-435): 0.851 µM | TGI (MDA-MB-435): 1.84 µM | GI50 (MOLT-4 leukemia): 4.11 µM | TGI (MOLT-4 leukemia): > 23.3 µM | GI50 (NCI-H226 lung): 6.91 µM | TGI (NCI-H226 lung): > 50 µM | GI50 (NCI-H23 lung): 5.27 µM | TGI (NCI-H23 lung): > 50 µM | GI50 (NCI-H460 lung): 1.63 µM | TGI (NCI-H460 lung): 5.88 µM | GI50 (NCI-H522 lung): 1.33 µM | TGI (NCI-H522 lung): 6.09 µM | GI50 (NCI/ADR-RES ovarian): 1.48 µM | TGI (NCI/ADR-RES ovarian): 9.95 µM | GI50 (OVCAR-3 ovarian): 2.4 µM | TGI (OVCAR-3 ovarian): 11.2 µM | GI50 (OVCAR-4 ovarian): 14.6 µM | TGI (OVCAR-4 ovarian): > 50 µM | GI50 (OVCAR-5 ovarian): 3.2 µM | TGI (OVCAR-5 ovarian): > 37 µM | GI50 (OVCAR-8 ovarian): 8.04 µM | TGI (OVCAR-8 ovarian): > 50 µM | GI50 (PC-3 prostate): 4.08 µM | TGI (PC-3 prostate): > 50 µM | GI50 (RPMI-8226 leukemia): 4.25 µM | TGI (RPMI-8226 leukemia): > 50 µM | GI50 (RXF 393 renal): 2.84 µM | TGI (RXF 393 renal): > 12.7 µM | GI50 (SF-268 CNS): 3.21 µM | TGI (SF-268 CNS): 35.3 µM | GI50 (SF-295 CNS): 1 µM | TGI (SF-295 CNS): 5.34 µM | GI50 (SF-539 CNS): 4.2 µM | TGI (SF-539 CNS): 13.1 µM | GI50 (SK-MEL-2 melanoma): 0.631 µM | TGI (SK-MEL-2 melanoma): > 11.1 µM | GI50 (SK-MEL-28 melanoma): 3.65 µM | TGI (SK-MEL-28 melanoma): > 50 µM | GI50 (SK-MEL-5 melanoma): 5.44 µM | TGI (SK-MEL-5 melanoma): 18.1 µM | GI50 (SK-OV-3 ovarian): 1.7 µM | TGI (SK-OV-3 ovarian): > 50 µM | GI50 (SN12C renal): 2.22 µM | TGI (SN12C renal): > 50 µM | GI50 (SNB-19 CNS): 5.52 µM | TGI (SNB-19 CNS): > 50 µM | GI50 (SNB-75 CNS): 0.884 µM | TGI (SNB-75 CNS): 5.85 µM | GI50 (SR leukemia): 0.386 µM | GI50 (SW-620 colon): 1.73 µM | TGI (SW-620 colon): > 24.4 µM | GI50 (T-47D breast): 6.04 µM | TGI (T-47D breast): > 38.9 µM | GI50 (TK-10 renal): 4.46 µM | TGI (TK-10 renal): > 50 µM | GI50 (U251 CNS): 2.42 µM | TGI (U251 CNS): > 40.7 µM | GI50 (UACC-257 melanoma): 7.17 µM | TGI (UACC-257 melanoma): > 45.2 µM | GI50 (UACC-62 melanoma): 2.38 µM | TGI (UACC-62 melanoma): > 50 µM | GI50 (UO-31 renal): 2.59 µM | TGI (UO-31 renal): > 50 µM
